Data taken from patent publication US20160009693A1, “HERBICIDAL COMPOUNDS” (SYNGENTA LIMITED, priority 2013, published 2016).

The compounds below were run on Alopecurus myosuroides (ALOMY) (assay: Herbicidal glasshouse test, pre-emergence, ALOMY). Conditions: applied at 1000 g/h, evaluated after 13 days.
Assay type: in vivo

| SMILES | PRE Application ALOMY, percentage damage (five point scale) |
| --- | --- |
| Cn1nnnc1NC(=O)c1nn(C)c(=O)n(Cc2ccc(F)cc2)c1=O [Compound 1.073] | 5 (5=80-100%) |
| Cc1cc(C)cc(Cn2c(=O)c(C(=O)Nc3nnnn3C)nn(C)c2=O)c1 [Compound 1.074] | 5 (5=80-100%) |
| Cc1cc(Cn2c(=O)c(C(=O)Nc3nnnn3C)nn(C)c2=O)ccc1F [Compound 1.075] | 5 (5=80-100%) |
| Cn1nnnc1NC(=O)c1nn(C)c(=O)n(Cc2cccc(F)c2C(F)(F)F)c1=O [Compound 1.076] | 5 (5=80-100%) |
| COc1ccc(F)c(Cn2c(=O)c(C(=O)Nc3nnnn3C)nn(C)c2=O)c1Cl [Compound 1.077] | 4 (4=60-79%) |

These compounds were tested on Setaria faberi (SETFA) (assay: Herbicidal glasshouse test, pre-emergence, SETFA). Conditions: applied at 1000 g/h, evaluated after 13 days.
Assay type: in vivo

| SMILES | PRE Application SETFA, percentage damage (five point scale) |
| --- | --- |
| Cn1nnnc1NC(=O)c1nn(C)c(=O)n(Cc2ccc(F)cc2)c1=O [Compound 1.073] | 1 (1=0-19%) |
| Cc1cc(C)cc(Cn2c(=O)c(C(=O)Nc3nnnn3C)nn(C)c2=O)c1 [Compound 1.074] | 1 (1=0-19%) |
| Cc1cc(Cn2c(=O)c(C(=O)Nc3nnnn3C)nn(C)c2=O)ccc1F [Compound 1.075] | 1 (1=0-19%) |
| Cn1nnnc1NC(=O)c1nn(C)c(=O)n(Cc2cccc(F)c2C(F)(F)F)c1=O [Compound 1.076] | 5 (5=80-100%) |
| COc1ccc(F)c(Cn2c(=O)c(C(=O)Nc3nnnn3C)nn(C)c2=O)c1Cl [Compound 1.077] | 2 (2=20-39%) |

The compounds below were run on Echinochloa crus-galli (ECHCG) (assay: Herbicidal glasshouse test, pre-emergence, ECHCG). Conditions: applied at 1000 g/h, evaluated after 13 days.
Assay type: in vivo
Method in brief: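 Echinochloa crus-galli seeds were sown in standard soil in pots and grown for one day in a glasshouse at 24/16° C. day/night, 14 hours light and 65% humidity. Pre-emergence spraying used an aqueous solution of the active ingredient in acetone/water (50:50) with 0.5% Tween 20. Damage was scored after 13 days on a five point scale.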

| SMILES | PRE Application ECHCG, percentage damage (five point scale) |
| --- | --- |
| Cn1nnnc1NC(=O)c1nn(C)c(=O)n(Cc2ccc(F)cc2)c1=O [Compound 1.073] | 5 (5=80-100%) |
| Cc1cc(C)cc(Cn2c(=O)c(C(=O)Nc3nnnn3C)nn(C)c2=O)c1 [Compound 1.074] | 4 (4=60-79%) |
| Cc1cc(Cn2c(=O)c(C(=O)Nc3nnnn3C)nn(C)c2=O)ccc1F [Compound 1.075] | 5 (5=80-100%) |
| Cn1nnnc1NC(=O)c1nn(C)c(=O)n(Cc2cccc(F)c2C(F)(F)F)c1=O [Compound 1.076] | 5 (5=80-100%) |
| COc1ccc(F)c(Cn2c(=O)c(C(=O)Nc3nnnn3C)nn(C)c2=O)c1Cl [Compound 1.077] | 4 (4=60-79%) |

What follows are compounds tested on Solanum nigrum (SOLNI) (assay: Herbicidal glasshouse test, pre-emergence, SOLNI). Conditions: applied at 1000 g/h, evaluated after 13 days.
Assay type: in vivo
Method in brief: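 Seeds of Solanum nigrum were sown in pots of standard soil and kept one day in a glasshouse at 24/16° C. day/night, 14 hours light and 65% humidity. For the pre-emergence treatment they were then sprayed with an aqueous solution of the active ingredient formulated in acetone/water (50:50) containing 0.5% Tween 20. Plant damage was rated after 13 days.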

| SMILES | PRE Application SOLNI, percentage damage (five point scale) |
| --- | --- |
| Cn1nnnc1NC(=O)c1nn(C)c(=O)n(Cc2ccc(F)cc2)c1=O [Compound 1.073] | 5 (5=80-100%) |
| Cc1cc(C)cc(Cn2c(=O)c(C(=O)Nc3nnnn3C)nn(C)c2=O)c1 [Compound 1.074] | 5 (5=80-100%) |
| Cc1cc(Cn2c(=O)c(C(=O)Nc3nnnn3C)nn(C)c2=O)ccc1F [Compound 1.075] | 5 (5=80-100%) |
| Cn1nnnc1NC(=O)c1nn(C)c(=O)n(Cc2cccc(F)c2C(F)(F)F)c1=O [Compound 1.076] | 5 (5=80-100%) |
| COc1ccc(F)c(Cn2c(=O)c(C(=O)Nc3nnnn3C)nn(C)c2=O)c1Cl [Compound 1.077] | 4 (4=60-79%) |

What follows are compounds tested on Amaranthus retoflexus (AMARE) (assay: Herbicidal glasshouse test, pre-emergence, AMARE). Conditions: applied at 1000 g/h, evaluated after 13 days.
Assay type: in vivo
Method in brief: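 Amaranthus retoflexus seeds were sown in pots of standard soil and kept one day in a glasshouse at 24/16° C. (day/night), 14 hours light and 65% humidity. They were then sprayed pre-emergence with the active ingredient in acetone/water (50:50) containing 0.5% Tween 20. Plants grew under the same conditions, watered twice daily, and percentage damage was scored after 13 days.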

| SMILES | PRE Application AMARE, percentage damage (five point scale) |
| --- | --- |
| Cn1nnnc1NC(=O)c1nn(C)c(=O)n(Cc2ccc(F)cc2)c1=O [Compound 1.073] | 5 (5=80-100%) |
| Cc1cc(C)cc(Cn2c(=O)c(C(=O)Nc3nnnn3C)nn(C)c2=O)c1 [Compound 1.074] | 5 (5=80-100%) |
| Cc1cc(Cn2c(=O)c(C(=O)Nc3nnnn3C)nn(C)c2=O)ccc1F [Compound 1.075] | 5 (5=80-100%) |
| Cn1nnnc1NC(=O)c1nn(C)c(=O)n(Cc2cccc(F)c2C(F)(F)F)c1=O [Compound 1.076] | 5 (5=80-100%) |
| COc1ccc(F)c(Cn2c(=O)c(C(=O)Nc3nnnn3C)nn(C)c2=O)c1Cl [Compound 1.077] | 3 (3=40-59%) |

The compounds below were run on Ipomoea hederacea (IPOHE) (assay: Herbicidal glasshouse test, pre-emergence, IPOHE). Conditions: applied at 1000 g/h, evaluated after 13 days.
Assay type: in vivo

| SMILES | PRE Application IPOHE, percentage damage (five point scale) |
| --- | --- |
| Cn1nnnc1NC(=O)c1nn(C)c(=O)n(Cc2ccc(F)cc2)c1=O [Compound 1.073] | 5 (5=80-100%) |
| Cc1cc(C)cc(Cn2c(=O)c(C(=O)Nc3nnnn3C)nn(C)c2=O)c1 [Compound 1.074] | 3 (3=40-59%) |
| Cc1cc(Cn2c(=O)c(C(=O)Nc3nnnn3C)nn(C)c2=O)ccc1F [Compound 1.075] | 5 (5=80-100%) |
| Cn1nnnc1NC(=O)c1nn(C)c(=O)n(Cc2cccc(F)c2C(F)(F)F)c1=O [Compound 1.076] | 5 (5=80-100%) |
| COc1ccc(F)c(Cn2c(=O)c(C(=O)Nc3nnnn3C)nn(C)c2=O)c1Cl [Compound 1.077] | 4 (4=60-79%) |

Each compound was assayed on Alopecurus myosuroides (ALOMY) (assay: Herbicidal glasshouse test, post-emergence, ALOMY). Conditions: applied at 1000 g/h, evaluated after 13 days.
Assay type: in vivo

| SMILES | POST Application ALOMY, percentage damage (five point scale) |
| --- | --- |
| Cn1nnnc1NC(=O)c1nn(C)c(=O)n(Cc2ccc(F)cc2)c1=O [Compound 1.073] | 2 (2=20-39%) |
| Cc1cc(C)cc(Cn2c(=O)c(C(=O)Nc3nnnn3C)nn(C)c2=O)c1 [Compound 1.074] | 4 (4=60-79%) |
| Cc1cc(Cn2c(=O)c(C(=O)Nc3nnnn3C)nn(C)c2=O)ccc1F [Compound 1.075] | 2 (2=20-39%) |
| Cn1nnnc1NC(=O)c1nn(C)c(=O)n(Cc2cccc(F)c2C(F)(F)F)c1=O [Compound 1.076] | 5 (5=80-100%) |
| COc1ccc(F)c(Cn2c(=O)c(C(=O)Nc3nnnn3C)nn(C)c2=O)c1Cl [Compound 1.077] | 4 (4=60-79%) |

The compounds below were run on Setaria faberi (SETFA) (assay: Herbicidal glasshouse test, post-emergence, SETFA). Conditions: applied at 1000 g/h, evaluated after 13 days.
Assay type: in vivo
Method in brief: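 Setaria faberi seeds were sown in standard soil in pots and grown for 8 days in a glasshouse at 24/16° C. day/night, 14 hours light and 65% humidity. The seedlings were then sprayed post-emergence with the active ingredient in acetone/water (50:50) containing 0.5% Tween 20. Afterwards they were kept under the same conditions, watered twice daily, and scored for percentage damage on a five point scale.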

| SMILES | POST Application SETFA, percentage damage (five point scale) |
| --- | --- |
| Cn1nnnc1NC(=O)c1nn(C)c(=O)n(Cc2ccc(F)cc2)c1=O [Compound 1.073] | 2 (2=20-39%) |
| Cc1cc(C)cc(Cn2c(=O)c(C(=O)Nc3nnnn3C)nn(C)c2=O)c1 [Compound 1.074] | 1 (1=0-19%) |
| Cc1cc(Cn2c(=O)c(C(=O)Nc3nnnn3C)nn(C)c2=O)ccc1F [Compound 1.075] | 1 (1=0-19%) |
| Cn1nnnc1NC(=O)c1nn(C)c(=O)n(Cc2cccc(F)c2C(F)(F)F)c1=O [Compound 1.076] | 5 (5=80-100%) |
| COc1ccc(F)c(Cn2c(=O)c(C(=O)Nc3nnnn3C)nn(C)c2=O)c1Cl [Compound 1.077] | 2 (2=20-39%) |

These compounds were tested on Echinochloa crus-galli (ECHCG) (assay: Herbicidal glasshouse test, post-emergence, ECHCG). Conditions: applied at 1000 g/h, evaluated after 13 days.
Assay type: in vivo
Method in brief: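 Echinochloa crus-galli (ECHCG) seeds were sown in standard soil in pots and grown for 8 days in a glasshouse at 24/16° C. day/night, 14 hours light and 65% humidity. The young plants were then sprayed post-emergence with the active ingredient in acetone / water (50:50) containing 0.5% Tween 20. Damage was scored after 13 days.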

| SMILES | POST Application ECHCG, percentage damage (five point scale) |
| --- | --- |
| Cn1nnnc1NC(=O)c1nn(C)c(=O)n(Cc2ccc(F)cc2)c1=O [Compound 1.073] | 3 (3=40-59%) |
| Cc1cc(C)cc(Cn2c(=O)c(C(=O)Nc3nnnn3C)nn(C)c2=O)c1 [Compound 1.074] | 3 (3=40-59%) |
| Cc1cc(Cn2c(=O)c(C(=O)Nc3nnnn3C)nn(C)c2=O)ccc1F [Compound 1.075] | 3 (3=40-59%) |
| Cn1nnnc1NC(=O)c1nn(C)c(=O)n(Cc2cccc(F)c2C(F)(F)F)c1=O [Compound 1.076] | 5 (5=80-100%) |
| COc1ccc(F)c(Cn2c(=O)c(C(=O)Nc3nnnn3C)nn(C)c2=O)c1Cl [Compound 1.077] | 4 (4=60-79%) |

Each compound was assayed on Solanum nigrum (SOLNI) (assay: Herbicidal glasshouse test, post-emergence, SOLNI). Conditions: applied at 1000 g/h, evaluated after 13 days.
Assay type: in vivo

| SMILES | POST Application SOLNI, percentage damage (five point scale) |
| --- | --- |
| Cn1nnnc1NC(=O)c1nn(C)c(=O)n(Cc2ccc(F)cc2)c1=O [Compound 1.073] | 5 (5=80-100%) |
| Cc1cc(C)cc(Cn2c(=O)c(C(=O)Nc3nnnn3C)nn(C)c2=O)c1 [Compound 1.074] | 5 (5=80-100%) |
| Cc1cc(Cn2c(=O)c(C(=O)Nc3nnnn3C)nn(C)c2=O)ccc1F [Compound 1.075] | 5 (5=80-100%) |
| Cn1nnnc1NC(=O)c1nn(C)c(=O)n(Cc2cccc(F)c2C(F)(F)F)c1=O [Compound 1.076] | 5 (5=80-100%) |
| COc1ccc(F)c(Cn2c(=O)c(C(=O)Nc3nnnn3C)nn(C)c2=O)c1Cl [Compound 1.077] | 4 (4=60-79%) |

Each compound was assayed on Amaranthus retoflexus (AMARE) (assay: Herbicidal glasshouse test, post-emergence, AMARE). Conditions: applied at 1000 g/h, evaluated after 13 days.
Assay type: in vivo
Method in brief: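 Amaranthus retoflexus (AMARE) seeds were sown in pots of standard soil and grown in a glasshouse at 24/16° C. day/night, 14 hours light and 65% humidity for 8 days. The plants were then sprayed post-emergence with an aqueous solution of the active ingredient in acetone/water (50:50) with 0.5% Tween 20. Damage was scored after 13 days.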

| SMILES | POST Application AMARE, percentage damage (five point scale) |
| --- | --- |
| Cn1nnnc1NC(=O)c1nn(C)c(=O)n(Cc2ccc(F)cc2)c1=O [Compound 1.073] | 5 (5=80-100%) |
| Cc1cc(C)cc(Cn2c(=O)c(C(=O)Nc3nnnn3C)nn(C)c2=O)c1 [Compound 1.074] | 5 (5=80-100%) |
| Cc1cc(Cn2c(=O)c(C(=O)Nc3nnnn3C)nn(C)c2=O)ccc1F [Compound 1.075] | 5 (5=80-100%) |
| Cn1nnnc1NC(=O)c1nn(C)c(=O)n(Cc2cccc(F)c2C(F)(F)F)c1=O [Compound 1.076] | 5 (5=80-100%) |
| COc1ccc(F)c(Cn2c(=O)c(C(=O)Nc3nnnn3C)nn(C)c2=O)c1Cl [Compound 1.077] | 3 (3=40-59%) |

The compounds below were run on Ipomoea hederacea (IPOHE) (assay: Herbicidal glasshouse test, post-emergence, IPOHE). Conditions: applied at 1000 g/h, evaluated after 13 days.
Assay type: in vivo

| SMILES | POST Application IPOHE, percentage damage (five point scale) |
| --- | --- |
| Cn1nnnc1NC(=O)c1nn(C)c(=O)n(Cc2ccc(F)cc2)c1=O [Compound 1.073] | 5 (5=80-100%) |
| Cc1cc(C)cc(Cn2c(=O)c(C(=O)Nc3nnnn3C)nn(C)c2=O)c1 [Compound 1.074] | 2 (2=20-39%) |
| Cc1cc(Cn2c(=O)c(C(=O)Nc3nnnn3C)nn(C)c2=O)ccc1F [Compound 1.075] | 5 (5=80-100%) |
| Cn1nnnc1NC(=O)c1nn(C)c(=O)n(Cc2cccc(F)c2C(F)(F)F)c1=O [Compound 1.076] | 5 (5=80-100%) |
| COc1ccc(F)c(Cn2c(=O)c(C(=O)Nc3nnnn3C)nn(C)c2=O)c1Cl [Compound 1.077] | 4 (4=60-79%) |
